The text below walks through data of US9005677B2, “Autophagy enhancer for treatment of neurodegenerative diseases” (Macau University of Science and Technology, priority 2013, dated 2015).

For series [1], the target named is T1, α-synuclein oligomerization in HeLa cells transfected with GNS and SGC (Homo sapiens, UniProt P37840).
T1 construct: expressed in transfected cells; host or cells: HeLa cells
The series can be described thus: Bimolecular fluorescence complementation (BiFC) assay. In kind it is cell-based. Conditions: 24 hours at 30° C. The procedure: Bimolecular fluorescence complementation (BiFC) assay. In brief, HeLa cells transfected with both GFP-N terminal-α-synuclein (GNS) and α-synuclein-GFP-C terminal (SGC) plasmids were incubated at 37° C. for 4 hours. Then, the transfected cells were incubated with different concentrations of Radix Polygalae ethanol extract or Onjisaponin B for a further 24 hours at 30° C.. Fluorescent signals upon complete GFP fluorophore reconstitution in cells were then detected by flow analysis.
Results: By using the bimolecular fluorescence complementation (BiFC) assay, the oligomerization of α-synuclein in living cells can be directly quantified. In brief, α-synuclein proteins fused with two different non-fluorescent GFP terminal fragments, (i) GFP-N terminal-α-synuclein (GNS) or (ii) α-synuclein-GFP-C terminal (SGC) respectively were used. Upon oligomerization of α-synuclein, the two non-fluorescent fractions of GFP will therefore reconstitute the complete GFP fluorophore and transmit GFP fluorescent signal within cells. This signal in turn can be quantified by flow cytometry analysis.

Series [2] relates to Atg7-knockout mouse embryonic fibroblasts. The series can be described thus: GFP-LC3 puncta in Atg7 deficient MEFs. In kind it is cell-based. How it is done:
(§1) Quantification of autophagy GFP-LC3 Puncta in Atg7 wild type and deficient MEFs. GFP-LC3 puncta formation was quantified as described previously. In brief, both Atg7 wild-type and deficient mouse embryonic fibroblasts (MEFs) grown on coverslips in a 6-well plate were treated with indicated concentrations of Onjisaponin B. The cells were then fixed in 4% paraformaldehyde for 20 minutes at room temperature and then rinsed with PBS. Slides were mounted with FluorSave™ mounting media (Calbiochem, San Diego, Calif.) and examined by fluorescence microscopy. The number of GFP-positive cells with GFP-LC3 puncta formation was examined under the Nikon ECLIPSE 80i microscope. Representative images were captured with CCD digital camera Spot RT3™ (Diagnostic Instruments, Inc., Melville, N.Y.). To quantify for autophagy, the percentage of cells with punctate GFP-LC3 fluorescence was calculated by counting the number of the cells with punctate GFP-LC3 fluorescence in GFP-positive cells. A minimum of 150 cells from 3 randomly selected fields was scored.

The subject of the next series is PC-12 cells. The series can be described thus: Cell viability by crystal violet staining. Conditions: 24 hours. Type of series: cell-based, rat. How it is done: Cell culture and cytotoxicity assay: The test compound of Onjisaponin B was dissolved in DMSO at a final concentration of 100 mmol/L and stored at −20° C. Cytotoxicity was assessed using the 3-(4,5-dimethylthiazol-2-yl) -2,5-diphenyltetrazolium bromide assay as described previously. PC-12, 4000 cells were seeded on 96-well plates per well. After overnight pre-incubation, the cells were exposed to different concentrations of Onjisaponin B (0.039-100 μmol/L) for 2 days. Subsequently, 10 μL of MTT reagents was added to each well and incubated at 37° C. for 4 hours followed by the addition of 100 μL solubilization buffer (10% SDS in 0.01 mol/L HCl) and overnight incubation. Absorbance at 585 nm was determined from each well the next day. For cell viability assay measured by crystal violet staining, PC-12 cells were incubated in 35 mm disc followed by the addition of Onjisaponin B at the indicated concentrations for 24 hours. The cells were then incubated with crystal violet for 10 minutes followed by a ddH2O wash. […] Cell viability was quantified by dissolving the stained cells in 10% acetic acid (200 μL/well). The colorimetric reading of the solute mixture was then determined by spectrophotometer at OD 560 nm The percentage of cell viability was calculated using the following formula: Cell viability (%)=Cells number treated/Cells number DMSO control×100. […]

For series [3], the system named is EGFP-HDQ74 inclusions in PC12 cells. Description: Mutant huntingtin aggregates in PC12, fluorescence microscopy. In kind it is cell-based, rat. Conditions: immunocytochemistry. The procedure: Quantification of mutant huntingtin aggregates in PC12, Atg7 wild type and deficient MEFs. In brief, both EGFP-HDQ74 transfected PC12, Atg7 wild-type and deficient mouse embryonic fibroblasts (MEFs) grown on coverslips in a 6-well plate were treated with indicated concentrations of Onjisaponin B. The cells were then fixed in 4% paraformaldehyde for 20 minutes at room temperature and then rinsed with PBS. Slides were mounted with FluorSave™ mounting media (Calbiochem, San Diego, Calif.) and examined by fluorescence microscopy. The number of cells with GFP-aggregates formation was examined under the Nikon ECLIPSE 80i microscope. Representative images were captured with CCD digital camera Spot RT3™ (Diagnostic Instruments, Inc., Melville, N.Y.). To quantify the clearance of mutant huntingtin, the percentage of cells with GFP-aggregates was calculated by counting the number of the cells with punctate GFP-LC3 fluorescence in GFP-positive cells. A minimum of 150 cells from 3 randomly selected fields was scored.

In series [4] the test system is GFP-LC3 puncta formation in PC12 cells. The series can be described thus: Quantification of autophagy GFP-LC3 puncta. The conditions noted are these: fluorescent microscopy. Type of series: cell-based, rat. The procedure:
as §1, with “Puncta.” for “Puncta in Atg7 wild type and deficient MEFs.”, “cells” for “both Atg7 wild-type and deficient mouse embryonic fibroblasts (MEFs)”, “were” for “were treated with indicated concentrations of Onjisaponin B. The cells were then”, “quantify” for “quantify for”

The test system of series [5] is mutant huntingtin EGFP-HDQ74 in PC 12 cells. The series can be described thus: Removal of mutant huntingtin, immunoblotting against EGFP. Conditions: 24 hours treatment. In kind it is cell-based, rat. How it is done:
(§2) Removal of mutant huntingtin and mutant α-synuclein. PC 12 cells were transfected transiently with EGFP-HDQ74 plasmids for 24 hours using Lipofectamine Plus LTX reagent (Invitrogen) according to the manufacturer's protocol. The transfected cells were then treated with Onjisaponin B for 24 hours. The removal of mutant huntingtin, EGFP-HDQ74, was then quantitated by immunoblotting with antibody against EGFP. To measure the clearance of α-synuclein in cellular model, the overexpression of mutant A53T α-synuclein was first induced by the addition of doxycycline (1 μg/ml) (Sigma) for 24 hours, by using the doxycycline inducible PC 12 cell line transfected with A53T α-synuclein plasmid. The expression of mutant A53T α-synuclein was then switched off by removing doxycycline from medium. Cells were then incubated with Onjisaponin B for a further 24 hours. The clearance of mutant α-synuclein was then measured by immunoblotting with antibody against myc tag.

Series [6] has as its system mutant A53T α-synuclein in doxycycline inducible PC 12 cell line. Description: Clearance of mutant A53T α-synuclein, immunoblotting against myc tag. In kind it is cell-based, rat. The conditions noted are these: PC 12 cells, 24 hours after doxycycline removal. The procedure:
as §2

The subject of series [7] is Atg7 wild-type mouse embryonic fibroblasts. Description: GFP-LC3 puncta in Atg7 wild-type MEFs. Type of series: cell-based. The procedure:
as §1

SMILES strings stand for the structures.

Turning to `COc1ccc(/C=C/C(=O)O[C@@H]2[C@H](O[C@@H]3O[C@@H](C)[C@H](O)[C@@H](O)[C@H]3O)[C@@H](O[C@@H]3O[C@@H](C)[C@H](O[C@@H]4OC[C@@H](O[C@@H]5O[C@H](CO)[C@H](O)[C@H](O)[C@H]5O)[C@H](O)[C@H]4O)[C@@H](O)[C@H]3O)[C@H](OC(=O)[C@]34CCC(C)(C)C[C@H]3C3=CC[C@@H]5[C@@]6(C)C[C@H](O)[C@H](O[C@@H]7O[C@H](CO)[C@@H](O)[C@H](O)[C@H]7O)[C@@](C)(C(=O)O)[C@@H]6CC[C@@]5(C)[C@]3(CO)CC4)O[C@@H]2C)cc1` [Onjisaponin B], in series [1], the “Oligomerization of α-synuclein (GFP fluorescent signal, flow analysis)” value is “inhibit the oligomerization of α-synuclein”. The “GFP-LC3 puncta formation in Atg7-knockout cells” value in series [2] is “not in Atg7-knockout mouse embryonic fibroblasts”. Further, the “Morphological damage in PC12 cells (crystal violet assay)” value in the series on PC-12 cells is given as “no significant morphological damage”. In addition, the “Clearance of inclusions formed by EGFP-HDQ74 in PC12 cells” value in series [3] is reported as “enhanced the clearance of inclusions formed by EGFP-HDQ74”. In series [4], the GFP-LC3 puncta formation result is listed as “increased the formation of GFP-LC3 puncta formation in a dose dependent manner”. Besides, the “Clearance of overexpressed EGFP-tagged mutant huntingtin with 74 CAG repeats” value in series [5] is on record as “enhanced the clearance”. Also, in series [6], the “Clearance of myc-tagged mutant A53T α-synuclein” value is “accelerate the clearance”. The “GFP-LC3 puncta formation in wild type Atg7 cells” value in series [7] is recorded as “induce GFP-LC3 puncta formation”.
